Measurements: patent publication US9956293B2, “Targeted therapeutics” (Madrigal Pharmaceuticals, Inc., priority 2014, dated 2018)

Tests used:
[1] = Artificial membrane permeability assay (PAMPA) (Example 36); format: in vitro ADME; settings: incubation 5 h, the 55th table
Experimental: In order to test the ability SDC-TRAP molecules of the invention to enter cells, an artificial membrane permeability assay (“PAMPA”) was used. […] LC/MS was used in conjunction with PAMPA assays to determine the ability of the SDC-TRAP molecules of the invention to permeate cells.
Pre-coated PAMPA plates were warmed to room temperature for at least 30 minutes prior to adding assay components.
Stock solutions were prepared with the SDC-TRAP molecules to be tested. In order to make a working solution, either 50 μL of 100 μM Stock in DMSO+950 μL of PBS or 50 μL of 200 μM stock was added to 96 deep well plate, resulting in a 5 μM final concentration or a 10 μM final concentration, respectively. 300 μL of the working solution containing each compound to be tested was added to the appropriate well of a donor PAMPA plate. 200 μL of PBS was added into the corresponding wells of an acceptor PAMPA plates.
The acceptor plate was lowered onto the donor plate and allowed to incubate for five hours. After five hours, a 50 μL aliquot was removed from each well of each plate and added into a new 96 deep-well plate.
100 μL of methanol containing an internal standard was added to each aliquot and analyzed by LC/MS. The internal standard was 150 ng/ml SDC-TRAP-0002.
In order to calculate the permeability for each SDC-TRAP molecule and the control molecules, the following formula was used:

[2] = Stability in mouse plasma (Example 5); format: in vitro ADME
Experimental: (§1) This example illustrates a method for assessing the stability of SDC-TRAP of the invention in human and mouse plasma.
(§2) SDC-TRAP-0022 and SDC-TRAP-0028 were incubated in human and mouse plasma for 2 h at 37° C. and assayed for integrity at 0.25, 0.5, 1 and 2 h. The values reported below are the remaining of the parent compound at the end of the 2 h incubation period.

[3] = tested on: HER2; test: HER2 degradation in BT-474 cells (Example 3, Western blot / in-cell imaging); format: cell-based, human; settings: Homo sapiens; BT-474 cells; read-out: HER2 (IC50)
Experimental: BT-474 cells are plated in the interior 60 wells of a 96 well black clear bottom plate (20,000 cells/well) in DMEM medium, with DMEM media in the surrounding 36 wells, and incubated at 37° C. with 5% CO2 overnight. On the second day, concentration response curve source plates are produced (10 point, 3-fold dilution of compounds in DMSO) followed by a 1:30 dilution in an intermediate dilution plate containing DMEM. Compound is transferred from the intermediate plate to the cell plate at a dilution of 1:10.
Cells are then fixed in 4% phosphate-buffered paraformaldehyde for 30 minutes at room temperature and then permeabilized by washing five times with 0.1% Triton X-100 in PBS for 5 minutes at room temperature on a shaker. […] Cells are washed 5 times with 0.1% Tween-20 in PBS for 5 minutes at room temperature on a shaker and imaged on a LI-COR Odyssey imaging station. The raw data is normalized to DRAQ5 and the HER2 EC50 is calculated using XLfit™.

[4] = Stability in human plasma (Example 5); format: in vitro ADME
Experimental: as §1, §2

[5] = tested on: HER2; test: HER2 degradation assay with BT-474 cell line (Example 12, FACS); format: cell-based; settings: Homo sapiens
[6] = BT-474, SDC-TRAPs of the 43rd table

Compound: CC(C)c1cc(-c2nnc(O)n2-c2ccc3c(ccn3CCNC(=O)CCCC[C@@H]3SCC4NC(=O)NC43)c2)c(O)cc1O (stereo in doubt) [SDC-TRAP-0233, N-(2-(5-(3-(2,4-dihydroxy-5-isopropylphenyl)-5-hydroxy-4H-1,2,4-triazol-4-yl)-1H-indol-1-yl)ethyl)-5-((3 aS,4S,6aR)-2-oxohexahydro-1H-thieno[3,4-d]imidazol-4-yl)pentanamide]
- Papp at 5 h [1]: 0.021 ×10⁻⁶ cm/s

Compound: CCc1c2c(nc3ccc(OCC(=O)N(C)CCOCCn4ccc5cc(-n6c(O)nnc6-c6cc(C(C)C)c(O)cc6O)ccc54)cc13)-c1cc3c(c(=O)n1C2)COC(=O)C3(O)CC (centres unmarked) [SDC-TRAP-0028, 2-((4,11-diethyl-4-hydroxy-3,14-dioxo-3,4,12,14-tetrahydro-1H-pyrano[3′,4′:6,7]indolizino[12-b]quinolin-9-yl)oxy)-N-(2-(2-(5-(3-(2,4-dihydroxy-5-isopropylphenyl)-5-hydroxy-4H-1,2,4-triazol-4-yl)-1H-indol-1-yl)ethoxy)ethyl)-N-methylacetamide]
- % Remaining 2 h (37° C.) MO ([2]; mouse, plasma, 2 h, 1 μM): 53%
- % Remaining 2 h (37° C.) MO ([2]; mouse, plasma, 2 h, 10 μM): 47%
- IC50 [3]: > 5 µM
- % Remaining 2 h (37° C.) HU ([4]; human, plasma, 2 h, 1 μM): 51%
- % Remaining 2 h (37° C.) HU ([4]; human, plasma, 2 h, 10 μM): 65%
- IC50 [5, 6]: > 5 µM

Compound: CC(C)c1cc(-c2nnc(O)n2-c2ccc3c(ccn3CCNC(=O)CCCCCNC(=O)CCCC[C@H]3SC[C@H]4NC(=O)N[C@H]43)c2)c(O)cc1O [SDC-TRAP-0234, N-(2-(5-(3-(2,4-dihydroxy-5-isopropylphenyl)-5-hydroxy-4H-1,2,4-triazol-4-yl)-1H-indol-1-yl)ethyl)-6-(5-((3aR,4R,6aS)-2-oxohexahydro-1H-thieno[3,4-d]imidazol-4-yl)pentanamido)hexanamide]
- Mass Retention [1]: 9.56%
- Papp at 5 h [1]: 0.0123 ×10⁻⁶ cm/s

Compound: CCc1c2c(nc3ccc(OCC(=O)NCCn4ccc5cc(-n6c(O)nnc6-c6cc(C(C)C)c(O)cc6O)ccc54)cc13)-c1cc3c(c(=O)n1C2)COC(=O)C3(O)CC (centres unmarked) [SDC-TRAP-0023, 2-((4,11-diethyl-4-hydroxy-3,14-dioxo-3,4,12,14-tetrahydro-1H-pyrano[3′,4′:6,7]indolizino[1,2b]quinolin-9-yl)oxy)-N-(2-(5-(3-(2,4-dihydroxy-5-isopropylphenyl)-5-hydroxy-4H-1,2,4-triazol-4-yl)-1H-indol-1-yl)ethyl)acetamide]
- IC50 [3]: 4.3 µM
- IC50 [5, 6]: 4.3 µM

Compound: CC(C)c1cc(-c2nnc(O)n2-c2ccc3c(ccn3CCOC(=O)Nc3nc(=O)[nH]cc3F)c2)c(O)cc1O [SDC-TRAP-0025, 2-(5-(3-(2,4-dihydroxy-5-isopropylphenyl)-5-hydroxy-4H-1,2,4-triazol-4-yl)-1H-indol-1-yl)ethyl (5-fluoro-2-oxo-1,2-dihydropyrimidin-4-yl) carbamate]
- IC50 [3]: 0.395 µM
- IC50 ([5]; BT-474, SDC-TRAPs of the 52nd table): 0.403 µM

Compound: CC(C)c1cc(-c2nnc(O)n2-c2ccc3c(ccn3CCOCCN(C)C(=O)CCC(=O)Nc3cccc4c3CN(C3CCC(=O)NC3=O)C4=O)c2)c(O)cc1O (centres unmarked) [SDC-TRAP-0033, N1-(2-(2-(5-(3-(2,4-dihydroxy-5-isopropylphenyl)-5-hydroxy-4H-1,2,4-triazol-4-yl)-1H-indol-1-yl)ethoxy)ethyl)-N4-(2-(2,6-dioxopiperidin-3-yl)-1-oxoisoindolin-4-yl)-N1-methylsuccinamide]
- IC50 [3]: > 5 µM
- IC50 ([5]; BT-474 cells): > 5 µM

Compound: CCc1c2c(nc3ccc(OCC(=O)N(C)CCn4ccc5cc(-n6c(O)nnc6-c6cc(C(C)C)c(O)cc6O)ccc54)cc13)-c1cc3c(c(=O)n1C2)COC(=O)C3(O)CC (centres unmarked) [SDC-TRAP-0027, 2-((4,11-diethyl-4-hydroxy-3,14-dioxo-3,4,12,14-tetrahydro-1H-pyrano[3′,4′:6,7]indolizino[1,2-b]quinolin-9-yl)oxy)-N-(2-(5-(3-(2,4-dihydroxy-5-isopropylphenyl)-5-hydroxy-4H-1,2,4-triazol-4-yl)-1H-indol-1-yl)ethyl)-N-methylacetamide]
- IC50 [3]: > 5 µM
- IC50 [5, 6]: > 5 µM

Compound: CC(C)c1cc(-c2nnc(O)n2-c2ccc3c(ccn3CCOCCNC(=O)CCCC(=O)Nc3cccc4c3CN(C3CCC(=O)NC3=O)C4=O)c2)c(O)cc1O (centres unmarked) [SDC-TRAP-0015, N1-(2-(2-(5-(3-(2,4-dihydroxy-5-isopropylphenyl)-5-hydroxy-4H-1,2,4-triazol-4-yl)-1H-indol-1-yl)ethoxy)ethyl)-N5-(2-(2,6-dixopiperidin-3-yl)-1-oxoisoindolin-4-yl)glutaramide]
- IC50 [3]: 2.35 µM
- IC50 ([5]; BT-474 cells): 2.35 µM

Compound: CC(C)c1cc(-c2nnc(O)n2-c2ccc(CN3CCN(C(=O)CCCC(=O)Nc4cccc5c4CN(C4CCC(=O)NC4=O)C5=O)CC3)cc2)c(O)cc1O (centres unmarked) [SDC-TRAP-0041, 5-(4-(4-(3-(2,4-dihydroxy-5-isopropylphenyl)-5-hydroxy-4H-1,2,4-triazol-4-yl)benzyl)piperazin-1-yl)-N-(2-(2,6-dioxopiperidin-3-yl)-1-oxoisoindolin-4-yl)-5-oxopentanamide]
- IC50 [3]: > 5 µM
- IC50 ([5]; BT-474 cells): > 10 µM

Compound: CC(C)c1cc(-c2nnc(O)n2-c2ccc3c(ccn3CCN(C)C(=O)CCCC(=O)Nc3cccc4c3CN(C3CCC(=O)NC3=O)C4=O)c2)c(O)cc1O (centres unmarked) [SDC-TRAP-0018, N1-(2-(5-(3-(2,4-dihydroxy-5-isopropylphenyl)-5-hydroxy-4H-1,2,4-triazol-4-yl)-1H-indol-1-yl)ethyl)-N5-(2-(2,6-dioxopiperidin-3-yl)-1-oxoisoindolin-4-yl)-N1-methylglutaramide]
- IC50 [3]: > 5 µM
- IC50 ([5]; BT-474 cells): 8.21 µM

Compound: CC(C)c1cc(-c2nnc(O)n2-c2ccc3c(ccn3CCN(C)C(=O)NCC(=O)Nc3cccc4c3CN(C3CCC(=O)NC3=O)C4=O)c2)c(O)cc1O (centres unmarked) [SDC-TRAP-0021, 2-(3-(2-(5-(3-(2,4-dihydroxy-5-isopropylphenyl)-5-hydroxy-4H-1,2,4-triazol-4-yl)-1H-indol-1-yl)ethyl)-3-methylureido)-N-(2-(2,6-dioxopiperidin-3-yl)-1-oxoisoindolin-4-yl)acetamide]
- IC50 [3]: > 5 µM
- IC50 ([5]; BT-474 cells): > 5 µM

Compound: CCc1c2c(nc3ccc(OC(=O)N(C)CCn4ccc5cc(-n6c(O)nnc6-c6cc(C(C)C)c(O)cc6O)ccc54)cc13)-c1cc3c(c(=O)n1C2)COC(=O)C3(O)CC (centres unmarked) [SDC-TRAP-0022, 4,11-diethyl-4-hydroxy-3,14-dioxo-3,4,12,14-tetrahydro-1H-pyrano[3′,4′:6,7]indolizino[1,2-b]quinolin-9-yl (2-(5-(3-(2,4-dihydroxy-5-isopropylphenyl)-5-hydroxy-4H-1,2,4-triazol-4-yl)-1H-indol-1-yl)ethyl)(methyl)carbamate]
- % Remaining 2 h (37° C.) MO ([2]; mouse plasma, 1 μM): 32%
- % Remaining 2 h (37° C.) MO ([2]; mouse plasma, 10 μM): 31%
- % Remaining 2 h (37° C.) HU ([4]; human plasma, 1 μM): 29%
- % Remaining 2 h (37° C.) HU ([4]; human plasma, 10 μM): 30%
